According to ChEMBL document CHEMBL5136977, “Discovery of 1-(5-(1H-benzo[d]imidazole-2-yl)-2,4-dimethyl-1H-pyrrol-3-yl)ethan-1-one derivatives as novel and potent bromodomain and extra-terminal (BET) inhibitors with anticancer efficacy” (Eur J Med Chem, 2022):

What was measured:
[1] = biological target: T1, Bromodomain-containing protein 4 (Homo sapiens, UniProt O60885); assay: Inhibition of recombinant his tagged BRD4 BD1 (unknown origin) at 2 uM by Alpha screen assay relative to control
MV4-11 [2] = assay: Antiproliferative activity against human MV4-11 cells assessed as cell growth inhibition incubated for 72 hrs by CellTiter-Glo assay; type: functional, cell-based; settings: MV4-11, 72 h
[3] = Metabolic stability in human liver microsomes assessed as elimination half life incubated for 1 hr by LC-MS/MS analysis; type: ADME, Microsome; settings: read-out: beta t1/2
[4] = Metabolic stability in monkey liver microsomes assessed as elimination half life incubated for 1 hr by LC-MS/MS analysis; type: ADME, Macaca mulatta, Microsome; settings: rhesus monkey, read-out: beta t1/2
[5] = Metabolic stability in dog liver microsomes assessed as elimination half life incubated for 1 hr by LC-MS/MS analysis; type: ADME, Canis lupus familiaris, Microsome; settings: read-out: beta t1/2
[6] = Metabolic stability in rat liver microsomes assessed as elimination half life incubated for 1 hr by LC-MS/MS analysis; type: ADME, Microsome; settings: read-out: beta t1/2
[7] = Metabolic stability in human liver microsomes assessed as intrinsic clearance incubated for 1 hr by LC-MS/MS analysis; type: ADME, Microsome; settings: read-out: CLH
[8] = Metabolic stability in monkey liver microsomes assessed as intrinsic clearance incubated for 1 hr by LC-MS/MS analysis; type: ADME, Macaca mulatta, Microsome; settings: rhesus monkey, read-out: CLH
[9] = Metabolic stability in dog liver microsomes assessed as intrinsic clearance incubated for 1 hr by LC-MS/MS analysis; type: ADME, Canis lupus familiaris, Microsome; settings: read-out: CLH
[10] = Metabolic stability in rat liver microsomes assessed as intrinsic clearance incubated for 1 hr by LC-MS/MS analysis; type: ADME, Microsome; settings: read-out: CLH
[11] = Metabolic stability in human liver assessed as intrinsic clearance incubated for 1 hr by LC-MS/MS analysis; type: ADME, tissue-based; settings: read-out: CLH
[12] = Metabolic stability in monkey liver assessed as intrinsic clearance incubated for 1 hr by LC-MS/MS analysis; type: ADME, tissue-based, Macaca mulatta; settings: rhesus monkey, read-out: CLH
[13] = Metabolic stability in dog liver assessed as intrinsic clearance incubated for 1 hr by LC-MS/MS analysis; type: ADME, tissue-based, Canis lupus familiaris; settings: read-out: CLH
[14] = Metabolic stability in rat liver assessed as intrinsic clearance incubated for 1 hr by LC-MS/MS analysis; type: ADME, tissue-based; settings: read-out: CLH
MV4-11 [15] = assay: Antiproliferative activity against human MV4-11 cells assessed as cell growth inhibition at 1 uM incubated for 72 hrs by CellTiter-Glo assay relative to control; type: functional
HL-60(TB) = assay: Antiproliferative activity against human HL-60(TB) cells assessed as cell growth inhibition measured after 72 hrs by CellTiter-Glo assay; type: functional
NCI-H522 = assay: Antiproliferative activity against human NCI-H522 cells assessed as cell growth inhibition measured after 72 hrs by CellTiter-Glo assay; type: functional
HCT-15 = assay: Antiproliferative activity against human HCT-15 cells assessed as cell growth inhibition measured after 72 hrs by CellTiter-Glo assay; type: functional
SNB-75 = assay: Antiproliferative activity against human SNB-75 cells assessed as cell growth inhibition measured after 72 hrs by CellTiter-Glo assay; type: functional
UACC-62 = assay: Antiproliferative activity against human UACC-62 cells assessed as cell growth inhibition measured after 72 hrs by CellTiter-Glo assay; type: functional
CAKI-1 = assay: Antiproliferative activity against human CAKI-1 cells assessed as cell growth inhibition measured after 72 hrs by CellTiter-Glo assay; type: functional
MDA-MB-468 = assay: Antiproliferative activity against human MDA-MB-468 cells assessed as cell growth inhibition measured after 72 hrs by CellTiter-Glo assay; type: functional
MV4-11 [16] = assay: Antitumor activity against human MV4-11 cells xenografted BALB/c nude mouse model assessed as tumor growth inhibition at 20 mg/kg, po QD administered for 28 consecutive days; type: functional; settings: MV4-11, 672 h, time 28 day, read-out: TGI
[17] = biological target: T1, Bromodomain-containing protein 4; assay: Inhibition of Alexa647 labelled MS417 binding to his tagged BRD4 BD1 (unknown origin) by TR-FRET assay

CC(=O)c1c(C)[nH]c(-c2ccc3c4ccccc4n(C)c3c2)c1C
inhibition [1]: 84%

CC(=O)c1c(C)[nH]c(-c2nc3ccccc3s2)c1C
inhibition [1]: 73.6%

COc1ccc(-c2c(-c3nc4cc(N5CCN(C)CC5)ccc4[nH]3)[nH]c(C)c2C(C)=O)cc1
IC50 (MV4-11 [2]): 0.223 µM

CC(=O)c1c(C)[nH]c(-c2nc3cc(N4CCOCC4)ccc3[nH]2)c1-c1ccccc1
IC50 (MV4-11 [2]): 0.318 µM | half-life [3]: 61.4 min | half-life [4]: 31.6 min | half-life [5]: 44.6 min | half-life [6]: 20.4 min | microsomal CLint [7]: 22.6 µL/min/mg | microsomal CLint [8]: 43.8 µL/min/mg | microsomal CLint [9]: 31.1 µL/min/mg | microsomal CLint [10]: 68 µL/min/mg | CLint scaled [11]: 21.4 mL/min/kg | CLint scaled [12]: 63.1 mL/min/kg | CLint scaled [13]: 44.8 mL/min/kg | CLint scaled [14]: 122 mL/min/kg

Cc1sc2c(c1C)C(c1ccc(Cl)cc1)=N[C@@H](CC(=O)OC(C)(C)C)c1nnc(C)n1-2
IC50 (MV4-11 [2]): 0.157 µM

CCN(CC)c1ccc2[nH]c(-c3[nH]c(C)c(C(C)=O)c3C)nc2c1
inhibition at 1 µM (MV4-11 [15]): 19.7%

CSc1ccc(-c2c(-c3nc4cc(N5CCN(C)CC5)ccc4[nH]3)[nH]c(C)c2C(C)=O)cc1
IC50 (MV4-11 [2]): 0.187 µM

COc1ccccc1-c1c(-c2nc3cc(N4CCN(C)CC4)ccc3[nH]2)[nH]c(C)c1C(C)=O
inhibition at 1 µM (MV4-11 [15]): 25.3%

CC(=O)c1c(C)[nH]c(-c2nc3cc(N4CCN(C)CC4)ccc3[nH]2)c1-c1ccc2c(c1)OCO2
IC50 (MV4-11 [2]): 0.161 µM

CC(=O)c1c(C)[nH]c(-c2cnc3ccccc3c2)c1C
inhibition [1]: 85.5%

Cc1sc2c(c1C)C(c1ccc(Cl)cc1)=N[C@@H](CC(=O)Nc1ccc(O)cc1)c1nnc(C)n1-2 [BIRABRESIB]
GI50 (HL-60(TB)): 0.179 µM | GI50 (NCI-H522): 0.262 µM | GI50 (HCT-15): 0.179 µM | GI50 (SNB-75): 0.0296 µM | GI50 (UACC-62): 0.162 µM | GI50 (CAKI-1): 0.0946 µM | GI50 (MDA-MB-468): 0.212 µM | inhibition in vivo at 20 mg/kg (MV4-11 [16]): 63.5%

CC(=O)c1c(C)[nH]c(-c2nc3cc(N4CCN(C)CC4)ccc3[nH]2)c1-c1ccc(N(C)C)cc1
IC50 (MV4-11 [2]): 0.192 µM

CC(=O)c1c(C)[nH]c(-c2nc3cc(N4CCN(C)CC4)ccc3[nH]2)c1-c1ccc2c(c1)OCCO2
IC50 (MV4-11 [2]): 0.157 µM

COc1ccc(-c2c(-c3nc4cc(N5CCN(C)CC5)ccc4[nH]3)[nH]c(C)c2C(C)=O)cc1OC
IC50 (MV4-11 [2]): 0.426 µM

COc1ccc(-c2c(-c3nc4cc(N5CCN(C)CC5)ccc4[nH]3)[nH]c(C)c2C(C)=O)cc1F
IC50 (MV4-11 [2]): 0.219 µM

CC(=O)c1c(C)[nH]c(-c2nc3cc(N4CCN(C)CC4)ccc3[nH]2)c1C
IC50 (MV4-11 [2]): 0.699 µM

CC(=O)c1c(C)[nH]c(-c2nc3cc(N4CCN(C)CC4)ccc3[nH]2)c1-c1ccc2ccccc2c1
IC50 (MV4-11 [2]): 0.556 µM

CCS(=O)(=O)N1CCN(c2ccc3[nH]c(-c4[nH]c(C)c(C(C)=O)c4C)nc3c2)CC1
IC50 (MV4-11 [2]): 1.64 µM

CC(=O)c1c(C)[nH]c(-c2nc3cc(N4CCN(C)CC4)ccc3[nH]2)c1C1CCCCC1
inhibition [1]: 79%

CC(=O)c1c(C)[nH]c(-c2nc3cc(N4CCCCC4)ccc3[nH]2)c1C
IC50 (MV4-11 [2]): 1.81 µM

CCc1c(-c2nc3cc(N4CCN(C)CC4)ccc3[nH]2)[nH]c(C)c1C(C)=O
IC50 (MV4-11 [2]): 0.617 µM

CC(=O)c1c(C)[nH]c(-c2nc3cc(N4CCOCC4)ccc3[nH]2)c1C
inhibition at 1 µM (MV4-11 [15]): 21.2%

CC(=O)c1c(C)[nH]c(-c2ccc3cc[nH]c3c2)c1C
inhibition [1]: 79.5%

CCS(=O)(=O)Nc1ccc(Oc2ccc(F)cc2F)c(-c2cn(C)c(=O)c3[nH]ccc23)c1 [MIVEBRESIB]
IC50 [17]: 0.011 µM

CC(=O)c1c(C)[nH]c(-c2nc3cc(N4CCN(C)CC4)ccc3[nH]2)c1-c1cccc(Cl)c1
IC50 (MV4-11 [2]): 0.321 µM

CC(=O)c1c(C)[nH]c(-c2nc3cc(N4CCC(CO)CC4)ccc3[nH]2)c1C
IC50 (MV4-11 [2]): 1.56 µM

COc1cccc(-c2c(-c3nc4cc(N5CCN(C)CC5)ccc4[nH]3)[nH]c(C)c2C(C)=O)c1
IC50 (MV4-11 [2]): 0.284 µM

CC(=O)c1c(C)[nH]c(-c2nc3c([nH]2)=CCC(Nc2ccnc(Cl)n2)C=3)c1C (stereo not drawn)
inhibition [1]: 91.1%

CC(=O)c1c(C)[nH]c(-c2nc3cc(N4CCN(C)CC4)ccc3[nH]2)c1-c1ccc(Cl)cc1
IC50 (MV4-11 [2]): 0.291 µM

CC(=O)c1c(C)[nH]c(-c2nc3cc(N4CCN(C)CC4)ccc3[nH]2)c1-c1ccccc1Cl
IC50 (MV4-11 [2]): 0.438 µM

CCOc1ccc(-c2c(-c3nc4cc(N5CCN(C)CC5)ccc4[nH]3)[nH]c(C)c2C(C)=O)cc1
IC50 (MV4-11 [2]): 0.192 µM

CC(=O)c1c(C)[nH]c(-c2nc3cc(N4CCN(C)CC4)ccc3[nH]2)c1C(C)C
inhibition [1]: 98.9%

CC(=O)c1c(C)[nH]c(-c2nc3cc(N4CCN(C)CC4)ccc3[nH]2)c1-c1cnn(C)c1
inhibition at 1 µM (MV4-11 [15]): 53%

CC(=O)c1c(C)[nH]c(-c2nc3cc(N4CCN(C)CC4)ccc3[nH]2)c1-c1ccc(C)cc1
IC50 (MV4-11 [2]): 0.176 µM
